According to patent US8030498B2, “Benzoylpyrazole compounds and herbicides containing them” (Ishihara Sangyo Kaisha, Ltd., priority 2005, dated 2011):

What was measured:
[1] = test system: corn (Zea mays L.); experiment: Test Example 1: foliar treatment, growth inhibition rate, corn; format: in vivo; conditions: 31 g/ha active ingredient, visually observed 17th to 23rd day after application
Summary of the method: (§1)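 Potted upland soil; compounds as wettable powders or emulsifiable concentrates diluted in water at 500 L/ha plus 0.1 vol % spreader, foliar-sprayed at defined leaf stages (rice 1.0–2.5, wheat 1.7–3.4, corn 2.0–3.5, greenfoxtail 1.0–3.0). Growth inhibition (0–100%) scored visually 17–23 days after application.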

[2] = test system: velvetleaf (Abutilon theophrasti MEDIC.); experiment: Test Example 1: foliar treatment, growth inhibition rate, velvetleaf; format: in vivo; conditions: 31 g/ha active ingredient, visually observed 17th to 23rd day after application
Summary of the method: (§2)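 Post-emergence foliar spray, pot test; WP/EC formulation in water at 500 L/ha, + 0.1 vol % spreader; leaf stage at treatment: corn 2.0–3.5, green foxtail 1.0–3.0, rice 1.0–2.5, wheat 1.7–3.4; visual % inhibition at 17–23 DAT (0 = untreated, 100 = dead).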

[3] = test system: wheat (Triticum spp.); experiment: Test Example 1: foliar treatment, growth inhibition rate, wheat; format: in vivo; conditions: 31 g/ha active ingredient, visually observed 17th to 23rd day after application
Summary of the method: as §1

[4] = test system: soybean; experiment: Test Example 2: soil application on the day after sowing, growth inhibition rate, soybean; format: in vivo, Glycine max Merr.; conditions: 250 g/ha active ingredient, observed on 19th to 24th day
Summary of the method: (§3)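 Upland soil pots sown with crop and weed seeds; next day wettable powder or emulsifiable concentrate at prescribed active-ingredient amounts, diluted to 500 L/ha water, sprayed onto soil. Growth inhibition scored visually 19–24 days later, 0 (as untreated) to 100% (complete kill).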

[5] = test system: greenfoxtail; experiment: Test Example 2: soil application on the day after sowing, growth inhibition rate, greenfoxtail; format: in vivo, Setaria viridis L.; conditions: 250 g/ha active ingredient, observed on 19th to 24th day
Summary of the method: as §3

[6] = test system: redroot pigweed; experiment: Test Example 2: soil application on the day after sowing, growth inhibition rate, redroot pigweed; format: in vivo, Amaranthus retroflexus L.; conditions: 250 g/ha active ingredient, observed on 19th to 24th day
Summary of the method: as §3

[7] = test system: redroot pigweed (Amaranthus retroflexus L.); experiment: Test Example 1: foliar treatment, growth inhibition rate, redroot pigweed; format: in vivo; conditions: 31 g/ha active ingredient, visually observed 17th to 23rd day after application
Summary of the method: (§4)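 Visual scoring of growth inhibition, 0% (untreated) to 100% (complete kill), on days 17–23 following post-emergence spray of formulated compound in water (500 L/ha, 0.1 vol % spreader); plants treated at set leaf stages, e.g. corn 2.0–3.5, wheat 1.7–3.4.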

[8] = test system: wheat; experiment: Test Example 2: soil application on the day after sowing, growth inhibition rate, wheat; format: in vivo, Triticum spp.; conditions: 250 g/ha active ingredient, observed on 19th to 24th day
Summary of the method: as §3

[9] = test system: barnyardgrass; experiment: Test Example 2: soil application on the day after sowing, growth inhibition rate, barnyardgrass; format: in vivo, Echinochloa crus-galli L.; conditions: 250 g/ha active ingredient, observed on 19th to 24th day
Summary of the method: as §3

[10] = test system: soybean (Glycine max Merr.); experiment: Test Example 1: foliar treatment, growth inhibition rate, soybean; format: in vivo; conditions: 31 g/ha active ingredient, visually observed 17th to 23rd day after application
Summary of the method: as §4

[11] = test system: crabgrass (Digitaria sanguinalis L.); experiment: Test Example 1: foliar treatment, growth inhibition rate, crabgrass; format: in vivo; conditions: 31 g/ha active ingredient, visually observed 17th to 23rd day after application
Summary of the method: as §4

[12] = test system: rice; experiment: Test Example 2: soil application on the day after sowing, growth inhibition rate, rice; format: in vivo, Oryza sativa L.; conditions: 250 g/ha active ingredient, observed on 19th to 24th day
Summary of the method: as §3

[13] = test system: crabgrass; experiment: Test Example 2: soil application on the day after sowing, growth inhibition rate, crabgrass; format: in vivo, Digitaria sanguinalis L.; conditions: 250 g/ha active ingredient, observed on 19th to 24th day
Summary of the method: as §3

[14] = test system: rice (Oryza sativa L.); experiment: Test Example 1: foliar treatment, growth inhibition rate, rice; format: in vivo; conditions: 31 g/ha active ingredient, visually observed 17th to 23rd day after application
Summary of the method: as §1

[15] = test system: velvetleaf; experiment: Test Example 2: soil application on the day after sowing, growth inhibition rate, velvetleaf; format: in vivo, Abutilon theophrasti MEDIC.; conditions: 250 g/ha active ingredient, observed on 19th to 24th day
Summary of the method: as §3

[16] = test system: prickly sida (Sida spinosa L.); experiment: Test Example 1: foliar treatment, growth inhibition rate, prickly sida; format: in vivo; conditions: 31 g/ha active ingredient, visually observed 17th to 23rd day after application
Summary of the method: as §4

[17] = test system: prickly sida; experiment: Test Example 2: soil application on the day after sowing, growth inhibition rate, prickly sida; format: in vivo, Sida spinosa L.; conditions: 250 g/ha active ingredient, observed on 19th to 24th day
Summary of the method: as §3

[18] = test system: corn; experiment: Test Example 2: soil application on the day after sowing, growth inhibition rate, corn; format: in vivo, Zea mays L.; conditions: 250 g/ha active ingredient, observed on 19th to 24th day
Summary of the method: as §3

[19] = test system: barnyardgrass (Echinochloa crus-galli L.); experiment: Test Example 1: foliar treatment, growth inhibition rate, barnyardgrass; format: in vivo; conditions: 31 g/ha active ingredient, visually observed 17th to 23rd day after application
Summary of the method: as §2

[20] = test system: greenfoxtail (Setaria viridis L.); experiment: Test Example 1: foliar treatment, growth inhibition rate, greenfoxtail; format: in vivo; conditions: 31 g/ha active ingredient, visually observed 17th to 23rd day after application
Summary of the method: as §1

| SMILES | Growth inhibition rate (%) Corn [1] | Growth inhibition rate (%) Velvetleaf [2] | Growth inhibition rate (%) Wheat [3] | Growth inhibition rate (%) Soybean [4] | Growth inhibition rate (%) Greenfoxtail [5] | Growth inhibition rate (%) redroot pigweed [6] | Growth inhibition rate (%) redroot pigweed [7] | Growth inhibition rate (%) Wheat [8] | Growth inhibition rate (%) Barnyardgrass [9] | Growth inhibition rate (%) Soybean [10] | Growth inhibition rate (%) Crabgrass [11] | Growth inhibition rate (%) Rice [12] | Growth inhibition rate (%) Crabgrass [13] | Growth inhibition rate (%) Rice [14] | Growth inhibition rate (%) Velvetleaf [15] | Growth inhibition rate (%) Prickly sida [16] | Growth inhibition rate (%) Prickly sida [17] | Growth inhibition rate (%) Corn [18] | Growth inhibition rate (%) Barnyardgrass [19] | Growth inhibition rate (%) Greenfoxtail [20] |
| --- | --- | --- | --- | --- | --- | --- | --- | --- | --- | --- | --- | --- | --- | --- | --- | --- | --- | --- | --- | --- |
| COCCOc1c(S(C)(=O)=O)ccc(C(=O)c2cnn(C)c2OC(=O)SC(C)C)c1C [compound 207] | 0% | 100% | 0% | 20% | 100% | 100% | 100% | 0% | 100% | 100% | 95% | 98% | 100% | 70% | 100% | 60% | 60% | 0% | 95% | 100% |
| CCC(C)SC(=O)Oc1c(C(=O)c2ccc(S(C)(=O)=O)c(C(=O)OC)c2C)cnn1C (centres unmarked) [compound 88] | 20% | 95% | 10% | 0% | 98% | 100% | 95% | 0% | 100% | 95% | 95% | 95% | 100% | 95% | 100% | 90% | 95% | 0% | 98% | 100% |
| CCOC(=O)c1c(S(C)(=O)=O)ccc(C(=O)c2cnn(CC)c2OC(=O)SCC)c1C [compound 61] | 50% | 95% | 60% | 20% | 100% | 100% | 100% | 30% | 100% | 80% | 98% | 85% | 100% | 90% | 90% | 95% | 80% | 0% | 98% | 100% |
| CCCSC(=O)Oc1c(C(=O)c2ccc(S(C)(=O)=O)c(C(=O)OC)c2C)cnn1C [compound 84] | 10% | 95% | 50% | 50% | 100% | 100% | 100% | 0% | 98% | 95% | 98% | 98% | 100% | 95% | 98% | 100% | 98% | 30% | 98% | 100% |
| CCSC(=O)Oc1c(C(=O)c2ccc(S(C)(=O)=O)c(C(=O)OC)c2Cl)cnn1C [compound 27] | 40% | 80% | 10% | 0% | 98% | 100% | 95% | 10% | 100% | 90% | 80% | 90% | 95% | 80% | 95% | 70% | 100% | 0% | 100% | 100% |
| CCSC(=O)Oc1c(C(=O)c2ccc(S(C)(=O)=O)c(CC#N)c2C)cnn1C [compound 83] | 0% | 95% | 0% | 0% | 40% | 90% | 80% | 0% | 80% | 95% | 100% | 50% | 95% | 80% | 40% | 70% | 70% | 0% | 100% | 100% |
| COC(=O)c1c(S(C)(=O)=O)ccc(C(=O)c2cnn(C)c2OC(=O)SC(C)C)c1C [compound 86] | 30% | 95% | 20% | 0% | 95% | 100% | 95% | 0% | 95% | 85% | 90% | 90% | 100% | 95% | 95% | 80% | 90% | 0% | 95% | 95% |
